The values that follow come from ChEMBL document CHEMBL1136660, “Novel 5-cyclopropyl-1,4-benzodiazepin-2-ones as potent and selective I(Ks)-blocking class III antiarrhythmic agents” (Bioorg Med Chem Lett, 2003).

SMILES strings stand for the structures. Some results are limits rather than exact numbers.

The nature of data set [1]: Percent metabolized in an in vitro human liver microsomal incubation assay after 60 min. Format: ADME, Microsome. The note with it: liver microsomes, read-out: Metabolism.
The species named for data set [2] is Cavia porcellus. Nature of the data set: Inhibitory concentration against IKr current was measured in isolated guinea pig myocytes during a 0.5 s voltage clamp step from -50 to -10 mV. It counts as functional.
Data set [3] is filed under the species Cavia porcellus. In words: Inhibitory concentration against IKs current was measured in isolated guinea pig myocytes during a 1 s voltage clamp step […]. It counts as functional.
Data set [4] deals with Canis familiaris. In words: QTc interval of compound was measured in chloralose anesthetized dogs(for its Class III activity in vivo) at dose of 0.001 mg/kg (iv); units are msec/square root of sec. Format: functional, Canis lupus familiaris.
Data set [5] concerns Canis familiaris. Nature of the data set: QTc interval of compound was measured in chloralose anesthetized dogs(for its Class III activity in vivo) at dose of 0.01 mg/kg (iv); units are msec/square root of sec. It counts as functional, Canis lupus familiaris.
In data set [6] the test system is Canis familiaris. Nature of the data set: QTc interval of compound was measured in chloralose anesthetized dogs(for its Class III activity in vivo) at dose of 0.1 mg/kg (iv); units are msec/square root of sec. Format: functional, Canis lupus familiaris.
For data set [7], the system named is Canis familiaris. Nature of the data set: Ventricular relative Refractory period (msec) of compound was measured in chloralose anesthetized dogs (for its Class III activity in vivo) at dose of 0.01 mg/kg (iv). It counts as functional, Canis lupus familiaris, Heart.
For data set [8], the system named is Canis familiaris. Nature of the data set: Ventricular relative Refractory period (msec) of compound was measured in chloralose anesthetized dogs (for its Class III activity in vivo) at dose of 0.1 mg/kg (iv). Format: functional, Canis lupus familiaris, Heart.
Data set [9] relates to Canis familiaris. In words: Ventricular relative Refractory period (msec) of compound was measured in chloralose anesthetized dogs (for its Class III activity in vivo) at dose of 0.001 mg/kg (iv). It counts as functional, Canis lupus familiaris, Heart.

In the case of `CC(C)C1=NC(NC(=O)Cc2ccc(C(F)(F)F)cc2C(F)(F)F)C(=O)N(CC(F)(F)F)c2ccccc21` (configuration not stated), the metabolised at 1 h in [1] was found to be 70%. The IC50 in [2] is > 1000 nM; in data set [3] (Cavia porcellus), 6 nM.
With `CCCN1C(=O)C(NC(=O)Cc2ccc(C(F)(F)F)cc2C(F)(F)F)N=C(C2CC2)c2ccccc21` (single isomer, unassigned; (+)), the IC50 is > 1000 nM in [2] and 165 nM in [3].
For `CC[C@@H](C)N1C(=O)C(NC(=O)Cc2ccc(C(F)(F)F)cc2C(F)(F)F)N=C(C2CC2)c2ccccc21` (single isomer, unassigned; (+)), the IC50 in [2] was > 1000 nM; in data set [3], 50 nM.
On to `CC[C@@H](C)N1C(=O)C(NC(=O)Cc2ccc(C(F)(F)F)cc2C(F)(F)F)N=C(c2ccccc2)c2ccccc21` (single isomer, unassigned; (+)), for which, in data set [3], the IC50 is 3.7 nM.
Consider `O=C(Cc1ccc(C(F)(F)F)cc1C(F)(F)F)NC1N=C(C2CC2)c2ccccc2N(CC(F)(F)F)C1=O` (single isomer, unassigned; (+)), for which the metabolised at 1 h in data set [1] is ~15%. The IC50 in data set [2] was > 1000 nM; in data set [3] (Cavia porcellus), 1.5 nM.
The molecule `CC[C@H](C)N1C(=O)C(NC(=O)Cc2ccc(C(F)(F)F)cc2C(F)(F)F)N=C(C2CC2)c2ccccc21` (single isomer, unassigned; (+)) yielded an IC50 in data set [3] of 180 nM.
Turning to `CCCN1C(=O)C(NC(=O)Cc2ccc(C(F)(F)F)cc2C(F)(F)F)N=C(C2CC2)c2ccccc21` (single isomer, unassigned; (-)), half-maximal inhibition in [3] (IC50) required 1.2 nM.
The molecule `CCN1C(=O)C(NC(=O)Cc2ccc(C(F)(F)F)cc2C(F)(F)F)N=C(C2CC2)c2ccccc21` (single isomer, unassigned; (-)) showed an IC50 in data set [3] of 4 nM.
Regarding `CC[C@@H](C)N1C(=O)C(NC(=O)Cc2ccc(C(F)(F)F)cc2C(F)(F)F)N=C(C2CC2)c2ccccc21` (single isomer, unassigned; (-)), the “QTc Interval” value in data set [4] was found to be 384 ms s-1; in [5] it was 392 ms s-1; in [6] it was 454 ms s-1. The figures for the “Ventricular relative refractory period” value in data set [7], in data set [8] and in data set [9] were 180 ms, 198 ms and 176 ms, respectively. The same molecule had an IC50 in data set [3] of 0.08 nM.
For the molecule `CN1C(=O)C(NC(=O)Cc2ccc(C(F)(F)F)cc2C(F)(F)F)N=C(C2CC2)c2ccccc21` (single isomer, unassigned; (-)), the figures for the IC50 in data set [2] and in data set [3] were > 1000 nM and 280 nM, respectively.
Consider `CC[C@H](C)N1C(=O)C(NC(=O)Cc2ccc(C(F)(F)F)cc2C(F)(F)F)N=C(C2CC2)c2ccccc21` (single isomer, unassigned; (-)), for which the IC50 in data set [2] was > 1000 nM; in data set [3], 0.4 nM.
As for `CN1C(=O)C(NC(=O)Cc2ccc(C(F)(F)F)cc2C(F)(F)F)N=C(C2CC2)c2ccccc21` (stereo in doubt; 4 (+)), the IC50 in data set [3] was determined as 38 nM.
In the case of `CCN1C(=O)C(NC(=O)Cc2ccc(C(F)(F)F)cc2C(F)(F)F)N=C(C2CC2)c2ccccc21` (stereo in doubt; 6 (+)), the IC50 in data set [2] was > 1000 nM; in data set [3], 200 nM.
`CC[C@@H](C)N1C(=O)C(NC(=O)Cc2ccc(C(F)(F)F)cc2C(F)(F)F)N=C(c2ccccc2)c2ccccc21` (stereo in doubt; 15 (-)): the IC50 in data set [2] is > 1000 nM; in data set [3] it was 44 nM.
With `O=C(Cc1ccc(C(F)(F)F)cc1C(F)(F)F)N[C@@H]1N=C(c2ccccc2)c2ccccc2N(CC(F)(F)F)C1=O` [L-768673], the results for the IC50 in [2] and in data set [3] (Cavia porcellus) were 6000 nM and 6 nM, respectively.
